Assay results reported in patent US12486254B2, “Uracil derivatives for stimulating read-through of premature termination codons” (Southern Research Institute, priority 2022, dated 2025).

Columns and labels:
W134X-CF#14 FRT = experiment: Read-through of a premature termination codon, W134X-CF#14 FRT data, with G418; format: cell-based; conditions: in presence of G418
Description: (§1) The compounds shown in Table 1 were evaluated for their ability to stimulate read-through of a premature termination codon, and their respective activities are shown in Tables 2 and 3 below.

G542X#10-HBE5x5 = experiment: Read-through of a premature termination codon, G542X#10-HBE5x5 (Table 3); format: cell-based; conditions: with G418
Description: as §1

Row | Structure (SMILES) | EC50 (W134X-CF#14 FRT) [µM] | EC50 (G542X#10-HBE5x5) [µM]
1 | CCn1c(=O)c(C(=O)CN(Cc2ncco2)C(C)C)c(N)n(Cc2ccccc2)c1=O [1.56] | ≥ 100 | ≥ 100
2 | CCn1c(=O)c(C(=O)CN2CCCCC2c2nc(C)no2)c(N)n(Cc2ccccc2)c1=O (centres unmarked) [1.86] | 56.1 | ≥ 100
3 | CCn1c(=O)c(C(=O)CNc2ccccc2C(N)=O)c(N)n(Cc2ccc(F)cc2)c1=O [1.207] | 35.7 | 26.2
4 | CCn1c(=O)c(C(=O)CNCC2CCCCO2)c(N)n(Cc2ccccc2)c1=O (centres unmarked) [1.8] | 166 | ≥ 100
5 | CCn1c(=O)c(C(=O)CN2CCc3cc(F)ccc3C2)c(N)n(Cc2ccccc2)c1=O [1.7] | 32.1 | ≥ 100
6 | CCn1c(=O)c(C(=O)CN2CCOCC2C(N)=O)c(N)n(Cc2ccccc2)c1=O (centres unmarked) [1.53] | ≥ 100 | ≥ 100

Now those with a lower EC50 (W134X-CF#14 FRT), led by results:

Row | EC50 (W134X-CF#14 FRT) [µM] | EC50 (G542X#10-HBE5x5) [µM] | Structure (SMILES)
7 | 22.7 | ≥ 100 | CCn1c(=O)c(C(=O)CN2CCC(c3ccccc3)C2)c(N)n(Cc2ccccc2)c1=O (centres unmarked) [1.3]
8 | 8.49 | ≥ 100 | CCn1c(=O)c(C(=O)CN2CCCCC2C(C)C)c(N)n(Cc2ccc(F)cc2)c1=O (centres unmarked) [1.175]
9 | 6.34 | ≥ 100 | NC(=O)C1CCCCN1CC(=O)c1c(N)n(Cc2ccc(F)cc2)c(=O)n(CC2CCC2)c1=O (centres unmarked) [1.140]
10 | 3.19 | 50 | NC(=O)[C@H]1CCCCN1CC(=O)c1c(N)n(Cc2ccc(F)cc2)c(=O)n(Cc2ccc(F)cc2)c1=O [1.47, (2R)-1-[2-[4-amino-1,3-bis[(4-fluorophenyl)methyl]-2,6-dioxo-pyrimidin-5-yl]-2-oxo-ethyl]piperidine-2-carboxamide]
